Test results taken from paper PMC7917255 (Frontiers in Pharmacology, 2021).
Residue numbers refer to the chain shown, from its start.

What was measured:
ABCG2 [1] = target: T1, ABCG2 (Homo sapiens, UniProt Q9UNQ0); assay: biochemical
T1 construct: ABCG2 in insect cell membrane vesicles (total membranes)
T1 sequence (Q9UNQ0 1-655): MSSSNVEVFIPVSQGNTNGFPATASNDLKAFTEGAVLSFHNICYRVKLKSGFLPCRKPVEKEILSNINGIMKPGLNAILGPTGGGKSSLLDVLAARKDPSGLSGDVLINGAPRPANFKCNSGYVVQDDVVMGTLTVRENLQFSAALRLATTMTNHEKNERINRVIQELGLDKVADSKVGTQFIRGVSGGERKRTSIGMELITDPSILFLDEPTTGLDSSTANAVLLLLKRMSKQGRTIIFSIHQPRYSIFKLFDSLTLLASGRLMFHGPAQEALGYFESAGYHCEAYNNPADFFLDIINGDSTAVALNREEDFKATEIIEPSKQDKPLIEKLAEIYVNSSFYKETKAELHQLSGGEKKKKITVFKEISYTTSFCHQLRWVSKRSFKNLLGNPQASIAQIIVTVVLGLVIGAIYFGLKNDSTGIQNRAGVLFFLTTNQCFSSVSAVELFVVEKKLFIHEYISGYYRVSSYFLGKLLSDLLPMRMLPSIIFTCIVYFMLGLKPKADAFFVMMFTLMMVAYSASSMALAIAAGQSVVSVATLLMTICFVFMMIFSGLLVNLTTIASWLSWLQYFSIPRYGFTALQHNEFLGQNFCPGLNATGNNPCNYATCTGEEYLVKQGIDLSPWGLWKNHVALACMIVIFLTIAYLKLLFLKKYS

ABCG2 [2] = target: T2, ABCG2 (Homo sapiens, UniProt Q9UNQ0, R482T); assay: tritium-labeled mitoxantrone accumulation in transfected cells
T2 sequence (Q9UNQ0 1-655 R482T): T1 sequence (Q9UNQ0 1-655) with R482T

Row | SMILES | EC50 (ABCG2 [1]) [nM] | tritium-labeled mitoxantrone accumulation in transfected cells (ABCG2 [2])
1 | Cc1cc(O)c(-c2ccc([C@@H](C)CN(C)C)cc2)c2c1[nH]c(=O)c1sccc12 [OTS964] | 140 | –
2 | O=C1c2c(O)ccc(O)c2C(=O)c2c(NCCNCCO)ccc(NCCNCCO)c21 [mitoxantrone] | – | ABCG2-mediated efflux of mitoxantrone, which is an established substrate of ABCG2, in R482T-mutant-ABCG2-overexpressing cell line
